Source: patent US11214803B2, “Modulators of YAP1 expression” (Ionis Pharmaceuticals, Inc., priority 2019, dated 2022)
Marks after values point to notes of the source that are not given here. Strand notation (5' to 3'): a small letter for the sugar, then the base; units joined by * are phosphorothioate-linked, units joined directly phosphodiester-linked; [ ] holds rarer units or linkages, { } end groups; capitals alone tell only the bases. k = constrained ethyl (cEt); [5mC] = 5-methylcytosine; d = 2'-deoxy (DNA)

Key:
Yap1 mRNA [1] = assay: Dose-dependent inhibition of human Yap1 in A-431 cells (Example 7, 10,000 cells per well, RTS36584); format: cell-based; details: free uptake
Method in brief: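 A-431 cells at 10,000 per well received modified oligonucleotides by free uptake at several doses. After about 48 hours, Yap1 mRNA was quantified with primer-probe set RTS36584, normalized to RIBOGREEN total RNA and expressed as % untreated control. IC50 came from linear regression on a log/linear plot.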

Yap1 mRNA [2] = assay: Yap1 mRNA in SNU449 cells in combination with sorafenib (Example 48); format: cell-based, human; details: free uptake, approximately 48 hours
Protocol: Modified oligonucleotides described in the studies above were tested at various doses in hepatocellular carcinoma cell line SNU449. ION No. 792169, described herein above, was used as a control modified oligonucleotide. ION No. 715487 was used to target Yap1 RNA. […] After approximately 48 hours, Yap1 mRNA levels were measured.
Yap1 mRNA knockdown in tumors was measured by RT-qPCR as previously described using the Human Yap1 primer-probe set RTS4814. Yap1 mRNA levels were normalized to actin-beta content, as measured by primer probe set RTS5002. Results are presented in the tables below as percent control of the amount of Yap1 mRNA relative to PBS treated cells (% control).

[3] = Tolerability in Sprague-Dawley rats, body and organ weights (Example 20); format: in vivo; details: male Sprague-Dawley rats, 50 mg/kg s.c. weekly for 6 weeks (7 doses); for Kidney weight / Liver weight / Spleen weight: end of study; for body weight: terminal, prior to necropsy
Protocol: Terminal body weight was measured prior to necropsy. Ionis oligonucleotides that caused any changes in organ weights outside the expected range for modified oligonucleotides were excluded from further studies.

SNU449 xenograft tumor = assay: Tumor volume in SNU449 xenograft tumor model, alone and in combination with sorafenib (second Example 30); format: in vivo, human; details: SNU449 xenograft, oligonucleotide 50 mg/kg, sorafenib 30 mg/kg orally
Protocol: Modified oligonucleotides described in the studies above were tested in a hepatocellular carcinoma SNU449 xenograft tumor model. […] A control oligonucleotide 792169, described herein above, was also tested.
Five million SNU449 cells in 30% matrigel were implanted subcutaneously into the fatpads of female NOD.Cg-Prkdcscid II2rgtmlWjl/SzJ mice (from Jackson Laboratory) at 4-6 weeks of age. 43 days post implantation (when tumors had reached approximately 100 mm^3 in size), groups of eight mice each were administered with 50 mg/kg modified oligonucleotide daily for 10 days (loading dose), following which they were administered with 50 mg/kg modified oligonucleotide four times a week for one week, following which they were dosed with 50 mg/kg modified oligonucleotide thrice weekly until the end of the study. […] Animals were sacrificed, and tumors were collected on day 119 post implantation.
Tumor volumes were also measured at the indicated days in the table below.

ERK1/2 = assay: Measurement of ERK activation (pERK/ERK) in SNU449 xenograft model with sorafenib (second Example 30); format: in vivo, human; details: SNU449 xenograft tumors, pERK/ERK relative to PBS control, oligonucleotide 50 mg/kg, sorafenib 30 mg/kg orally
Protocol: Five million SNU449 cells in 30% matrigel were implanted subcutaneously into the fatpads of female NOD.Cg-Prkdcscid II2rgtmlWjl/SzJ mice (from Jackson Laboratory) at 4-6 weeks of age. 43 days post implantation (when tumors had reached approximately 100 mm^3 in size), groups of eight mice each were administered with 50 mg/kg modified oligonucleotide daily for 10 days (loading dose), following which they were administered with 50 mg/kg modified oligonucleotide four times a week for one week, following which they were dosed with 50 mg/kg modified oligonucleotide thrice weekly until the end of the study.
Protein analysis was carried out using standard procedures. […] ERK protein levels were compared to internal control GAPDH. […] The secondary antibody used was donkey anti-rabbit NA934, GE Healthcare. pERK/ERK levels were calculated relative to PBS control to determine % activation of ERK1/2.

[4] = oligonucleotide at 0.04 uM, sorafenib 0 uM
[5] = oligonucleotide at 0.04 uM, sorafenib 0.37 uM
[6] = oligonucleotide at 0.04 uM, sorafenib 3.33 uM
[7] = oligonucleotide at 0.04 uM, sorafenib 10 uM
[8] = oligonucleotide at 0.04 uM, sorafenib […]
[9] = oligonucleotide at 0.2 uM, sorafenib 0 uM
[10] = oligonucleotide at 0.2 uM, sorafenib 0.37 uM
[11] = oligonucleotide at 0.2 uM, sorafenib 3.33 uM
[12] = oligonucleotide at 0.2 uM, sorafenib 10 uM
[13] = oligonucleotide at 0.2 uM, sorafenib […]
[14] = oligonucleotide at 1 uM, sorafenib 0 uM
[15] = oligonucleotide at 1 uM, sorafenib 0.37 uM
[16] = oligonucleotide at 1 uM, sorafenib 3.33 uM
[17] = oligonucleotide at 1 uM, sorafenib 10 uM
[18] = oligonucleotide at 1 uM, sorafenib […]
[19] = oligonucleotide at 5 uM, sorafenib 0 uM
[20] = oligonucleotide at 5 uM, sorafenib 0.37 uM
[21] = oligonucleotide at 5 uM, sorafenib 3.33 uM
[22] = oligonucleotide at 5 uM, sorafenib 10 uM
[23] = oligonucleotide at 5 uM, sorafenib […]
[24] = day 101 post tumor implantation
[25] = day 105 post tumor implantation
[26] = day 108 post tumor implantation
[27] = day 119 post tumor implantation

715487 (kA*kT*kT*dA*d[5mC]*dT*dT*d[5mC]*dA*dT*dA*dG*d[5mC]*kT*kT*kA) [compound 715487]
Yap1 mRNA, % UTC (Yap1 mRNA [1]; 15.6 nM, A-431 cells, 10,000 cells per well, approximately 48 hours): 77 % UTC | Yap1 mRNA, % UTC (Yap1 mRNA [1]; 62.5 nM, A-431 cells, 10,000 cells per well, approximately 48 hours): 44 % UTC | Yap1 mRNA, % UTC (Yap1 mRNA [1]; 4000.00 nM, A-431 cells, 10,000 cells per well, approximately 48 hours): 4 % UTC | IC50 (Yap1 mRNA [1]; A-431 cells, approximately 48 hours, linear regression on log/linear plot): 100 nM | YAP1 mRNA (Yap1 mRNA [2]; [4]): 98 % control | YAP1 mRNA (Yap1 mRNA [2]; [5]): 97 % control | YAP1 mRNA (Yap1 mRNA [2]; [6]): 83 % control | YAP1 mRNA (Yap1 mRNA [2]; [7]): 78 % control | YAP1 mRNA (Yap1 mRNA [2]; [8]): 77 % control | YAP1 mRNA (Yap1 mRNA [2]; [9]): 54 % control | YAP1 mRNA (Yap1 mRNA [2]; [10]): 51 % control | YAP1 mRNA (Yap1 mRNA [2]; [11]): 45 % control | YAP1 mRNA (Yap1 mRNA [2]; [12]): 46 % control | YAP1 mRNA (Yap1 mRNA [2]; [13]): 44 % control | YAP1 mRNA (Yap1 mRNA [2]; [14]): 30 % control | YAP1 mRNA (Yap1 mRNA [2]; [15]): 23 % control | YAP1 mRNA (Yap1 mRNA [2]; [16]): 21 % control | YAP1 mRNA (Yap1 mRNA [2]; [17]): 20 % control | YAP1 mRNA (Yap1 mRNA [2]; [18]): 22 % control | YAP1 mRNA (Yap1 mRNA [2]; [19]): 9 % control | YAP1 mRNA (Yap1 mRNA [2]; [20]): 8 % control | YAP1 mRNA (Yap1 mRNA [2]; [21]): 7 % control | YAP1 mRNA (Yap1 mRNA [2]; [22]): 8 % control | YAP1 mRNA (Yap1 mRNA [2]; [23]): 7 % control

958499 (ATTAGAGTATGTGGCA; 3-10-3 cEt gapmer, further chemistry not given here) [compound 958499]
Yap1 mRNA, % UTC (Yap1 mRNA [1]; Table 61, 15.6 nM, A-431 cells 10,000 cells per well, 48 hours): 54 % UTC | Yap1 mRNA, % UTC (Yap1 mRNA [1]; Table 61, 62.5 nM, A-431 cells 10,000 cells per well, 48 hours): 12 % UTC | Yap1 mRNA, % UTC (Yap1 mRNA [1]; Table 61, 4000.00 nM, A-431 cells 10,000 cells per well, 48 hours): 1 % UTC | IC50 (Yap1 mRNA [1]; Table 61, A-431 cells 10,000 cells per well): < 10 nM | Kidney weight [3]: 3.1 g | Liver weight [3]: 14 g | Spleen weight [3]: 2.8 g | body weight [3]: 333 g

1198440 (AAGTGTATGTCAGAAG; cEt, 2'-MOE, 5-methylcytosine, phosphorothioate modifications, further chemistry not given here) [compound 1198440]
Average Tumor Volume (SNU449 xenograft tumor; day 43 post tumor implantation): 111 mm^3 | Average Tumor Volume (SNU449 xenograft tumor; day 46 post tumor implantation): 152 mm^3 | Average Tumor Volume (SNU449 xenograft tumor; day 50 post tumor implantation): 168 mm^3 | Average Tumor Volume (SNU449 xenograft tumor; day 53 post tumor implantation): 201 mm^3 | Average Tumor Volume (SNU449 xenograft tumor; day 57 post tumor implantation): 242 mm^3 | Average Tumor Volume (SNU449 xenograft tumor; day 60 post tumor implantation): 263 mm^3 | Average Tumor Volume (SNU449 xenograft tumor; day 64 post tumor implantation): 338 mm^3 | Average Tumor Volume (SNU449 xenograft tumor; day 67 post tumor implantation): 376 mm^3 | Average Tumor Volume (SNU449 xenograft tumor; day 71 post tumor implantation): 373 mm^3 | Average Tumor Volume (SNU449 xenograft tumor; day 75 post tumor implantation): 401 mm^3 | Average Tumor Volume (SNU449 xenograft tumor; day 78 post tumor implantation): 429 mm^3 | Average Tumor Volume (SNU449 xenograft tumor; day 81 post tumor implantation): 514 mm^3 | Average Tumor Volume (SNU449 xenograft tumor; day 85 post tumor implantation): 606 mm^3 | Average Tumor Volume (SNU449 xenograft tumor; day 88 post tumor implantation): 613 mm^3 | Average Tumor Volume (SNU449 xenograft tumor; day 92 post tumor implantation): 690 mm^3 | Average Tumor Volume (SNU449 xenograft tumor; day 94 post tumor implantation): 773 mm^3 | Average Tumor Volume (SNU449 xenograft tumor; day 98 post tumor implantation): 804 mm^3 | Average Tumor Volume (SNU449 xenograft tumor; [24]): 818 mm^3 | Average Tumor Volume (SNU449 xenograft tumor; [25]): 894 mm^3 | Average Tumor Volume (SNU449 xenograft tumor; [26]): 921 mm^3 | Average Tumor Volume (SNU449 xenograft tumor; [27]): 978 mm^3 | % activation of ERK1/2 (ERK1/2): 88%

CGCCGATAAGGTACAC (cEt gapmer, phosphorothioate backbone, further chemistry not given here) [ION 792169, reference compound]
Average Tumor Volume (SNU449 xenograft tumor; day 43 post tumor implantation): 111 mm^3 | Average Tumor Volume (SNU449 xenograft tumor; day 46 post tumor implantation): 162 mm^3 | Average Tumor Volume (SNU449 xenograft tumor; day 50 post tumor implantation): 180 mm^3 | Average Tumor Volume (SNU449 xenograft tumor; day 53 post tumor implantation): 247 mm^3 | Average Tumor Volume (SNU449 xenograft tumor; day 57 post tumor implantation): 280 mm^3 | Average Tumor Volume (SNU449 xenograft tumor; day 60 post tumor implantation): 317 mm^3 | Average Tumor Volume (SNU449 xenograft tumor; day 64 post tumor implantation): 397 mm^3 | Average Tumor Volume (SNU449 xenograft tumor; day 67 post tumor implantation): 466 mm^3 | Average Tumor Volume (SNU449 xenograft tumor; day 71 post tumor implantation): 519 mm^3 | Average Tumor Volume (SNU449 xenograft tumor; day 75 post tumor implantation): 559 mm^3 | Average Tumor Volume (SNU449 xenograft tumor; day 78 post tumor implantation): 634 mm^3 | Average Tumor Volume (SNU449 xenograft tumor; day 81 post tumor implantation): 681 mm^3 | Average Tumor Volume (SNU449 xenograft tumor; day 85 post tumor implantation): 785 mm^3 | Average Tumor Volume (SNU449 xenograft tumor; day 88 post tumor implantation): 889 mm^3 | Average Tumor Volume (SNU449 xenograft tumor; day 92 post tumor implantation): 1170 mm^3 | Average Tumor Volume (SNU449 xenograft tumor; day 94 post tumor implantation): 1215 mm^3 | Average Tumor Volume (SNU449 xenograft tumor; day 98 post tumor implantation): 1355 mm^3 | Average Tumor Volume (SNU449 xenograft tumor; [24]): 1417 mm^3 | Average Tumor Volume (SNU449 xenograft tumor; [25]): 1509 mm^3 | Average Tumor Volume (SNU449 xenograft tumor; [26]): 1571 mm^3 | Average Tumor Volume (SNU449 xenograft tumor; [27]): 1697* mm^3 | % activation of ERK1/2 (ERK1/2): 100% | YAP1 mRNA (Yap1 mRNA [2]; [4]): 115 % control | YAP1 mRNA (Yap1 mRNA [2]; [5]): 97 % control | YAP1 mRNA (Yap1 mRNA [2]; [6]): 99 % control | YAP1 mRNA (Yap1 mRNA [2]; [7]): 102 % control | YAP1 mRNA (Yap1 mRNA [2]; [8]): 100 % control | YAP1 mRNA (Yap1 mRNA [2]; [9]): 113 % control | YAP1 mRNA (Yap1 mRNA [2]; [10]): 96 % control | YAP1 mRNA (Yap1 mRNA [2]; [11]): 91 % control | YAP1 mRNA (Yap1 mRNA [2]; [12]): 94 % control | YAP1 mRNA (Yap1 mRNA [2]; [13]): 97 % control | YAP1 mRNA (Yap1 mRNA [2]; [14]): 103 % control | YAP1 mRNA (Yap1 mRNA [2]; [15]): 99 % control | YAP1 mRNA (Yap1 mRNA [2]; [16]): 92 % control | YAP1 mRNA (Yap1 mRNA [2]; [17]): 93 % control | YAP1 mRNA (Yap1 mRNA [2]; [18]): 93 % control | YAP1 mRNA (Yap1 mRNA [2]; [19]): 103 % control | YAP1 mRNA (Yap1 mRNA [2]; [20]): 104 % control | YAP1 mRNA (Yap1 mRNA [2]; [21]): 97 % control | YAP1 mRNA (Yap1 mRNA [2]; [22]): 97 % control | YAP1 mRNA (Yap1 mRNA [2]; [23]): 95 % control

1076453 (GTAATATTGCAATCTG; 3-10-3 cEt gapmer, further chemistry not given here) [compound 1076453]
Kidney weight [3]: 3.2 g | Liver weight [3]: 16 g | Spleen weight [3]: 2.1 g | body weight [3]: 371 g
